Publication PMC4634205 (Cancer research, 2015)
“Also recorded” adds a separate entry of the source. Where a name gives a salt, the structure may show the parent alone. Read-outs that look alike come from different tables or passages of the source.

How the values were obtained:
[1] = tested on: Abcb1a; assay: TaqMan RT-PCR of small intestinal Abcb1a mRNA; type: in vivo, mouse
[2] = tested on: Abcb1b; assay: TaqMan RT-PCR of small intestinal Abcb1b mRNA; type: in vivo, mouse
[3] = tested on: Abcg2; assay: TaqMan RT-PCR of small intestinal Abcg2 mRNA; type: in vivo, mouse; conditions: huPXR/huCAR/huCYP3A4/3A7 mice treated with RIF
[4] = molecular target: T1, CYP2C9 (Homo sapiens, UniProt P11712); assay: in vitro; conditions: recombinant CYP2C9, pH 7.4
[5] = tested on: BRAF^V600E-positive metastatic melanoma; conditions: single agent, all patients with BRAF V600E-positive metastatic melanoma; cited from earlier work
[6] = molecular target: T2, PXR (Homo sapiens, UniProt O75469); assay: PXR-transactivation assay in DPX2 cells
T2 sequence (O75469 1-434): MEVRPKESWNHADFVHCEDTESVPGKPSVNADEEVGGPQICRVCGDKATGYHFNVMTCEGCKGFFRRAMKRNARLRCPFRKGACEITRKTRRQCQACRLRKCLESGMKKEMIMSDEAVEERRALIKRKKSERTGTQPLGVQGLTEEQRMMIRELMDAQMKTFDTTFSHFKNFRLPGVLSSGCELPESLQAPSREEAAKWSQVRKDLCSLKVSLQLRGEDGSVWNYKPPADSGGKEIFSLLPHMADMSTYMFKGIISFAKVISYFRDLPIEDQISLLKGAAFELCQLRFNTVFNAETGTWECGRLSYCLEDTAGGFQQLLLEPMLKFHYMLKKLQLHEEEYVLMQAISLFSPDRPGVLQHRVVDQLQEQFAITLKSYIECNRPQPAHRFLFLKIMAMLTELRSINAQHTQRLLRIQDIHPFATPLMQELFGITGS

[7] = tested on: Cyp2b; assay: Western blot of hepatic microsomal Cyp2b; type: in vivo, mouse; conditions: huPXR/huCAR/huCYP3A4/3A7 mice
[8] = tested on: ABCB1; conditions: MDCK-ABCB1 cell line; cited from earlier work
[9] = type: in vivo; conditions: huPXR/huCAR/huCYP3A4/3A7, mouse, whole blood, po, 100 mg/kg
[10] = read-out: Cmax (mean) in patients at steady state; cited from earlier work
[11] = molecular target: T1, CYP2C9; conditions: 60 μM compound, 400 pmol/mL enzyme, 15 min
[12] = tested on: COLO205 xenografts; conditions: cited from earlier work
[13] = tested on: CYP2D6; conditions: patients at steady state; cited from earlier work
[14] = crystalline form, physiological pH; cited from earlier work
[15] = tested on: Cyp1a; assay: Western blot of hepatic microsomal Cyp1a; type: in vivo, mouse; conditions: huPXR/huCAR/huCYP3A4/3A7 mice, MBP vemurafenib 100 mg/kg b.i.d. four days
[16] = tested on: CYP3A4
[17] = tested on: CYP3A4; assay: TaqMan RT-PCR of small intestinal CYP3A4 mRNA; type: in vivo, mouse; conditions: MBP vemurafenib 100 mg/kg b.i.d. four days
[18] = Apparent kinetics of OH-vemurafenib formation in HLM; type: in vitro ADME, human
[19] = tested on: DPX2 cells; assay: Toxicity in DPX2 cells in the PXR-transactivation assay; type: cell-based; conditions: top two concentrations (41.67 and 125 μM), 48 hours
[20] = molecular target: T3, CYP3A4 (Homo sapiens, UniProt P08684); assay: biochemical
Target sequence in this assay (P08684 2-503): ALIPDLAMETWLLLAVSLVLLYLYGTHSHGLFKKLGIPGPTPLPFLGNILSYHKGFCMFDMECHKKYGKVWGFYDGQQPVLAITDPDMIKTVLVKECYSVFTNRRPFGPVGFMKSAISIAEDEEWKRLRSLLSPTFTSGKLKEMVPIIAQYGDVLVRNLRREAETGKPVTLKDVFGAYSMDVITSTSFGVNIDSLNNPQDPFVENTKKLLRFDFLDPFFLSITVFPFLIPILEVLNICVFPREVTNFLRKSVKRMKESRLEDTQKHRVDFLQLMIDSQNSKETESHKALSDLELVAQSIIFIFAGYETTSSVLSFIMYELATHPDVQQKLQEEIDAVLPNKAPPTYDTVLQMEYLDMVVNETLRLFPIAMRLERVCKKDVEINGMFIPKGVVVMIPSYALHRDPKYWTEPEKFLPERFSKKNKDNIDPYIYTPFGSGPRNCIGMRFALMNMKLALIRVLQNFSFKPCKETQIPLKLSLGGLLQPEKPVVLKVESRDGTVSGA

[21] = cited from earlier work
[22] = tested on: CYP1A2; conditions: patients at steady state; cited from earlier work
[23] = type: in vivo, mouse
[24] = Apparent kinetics of OH-vemurafenib formation in MLM; type: in vitro ADME, mouse; conditions: Hill equation fit
[25] = Vemurafenib pharmacokinetics in huPXR/huCAR mice; type: in vivo; conditions: male, mouse, whole blood, po, 50 mg/kg, AUCall of vemurafenib, RIF pre-treatment, Figure 3A
[26] = Vemurafenib pharmacokinetics in huPXR/huCAR/huCYP3A4/3A7 mice; type: in vivo, mouse; conditions: for AUC: AUCall of vemurafenib
[27] = molecular target: T3, CYP3A4
Target sequence in this assay (P08684 whole entry): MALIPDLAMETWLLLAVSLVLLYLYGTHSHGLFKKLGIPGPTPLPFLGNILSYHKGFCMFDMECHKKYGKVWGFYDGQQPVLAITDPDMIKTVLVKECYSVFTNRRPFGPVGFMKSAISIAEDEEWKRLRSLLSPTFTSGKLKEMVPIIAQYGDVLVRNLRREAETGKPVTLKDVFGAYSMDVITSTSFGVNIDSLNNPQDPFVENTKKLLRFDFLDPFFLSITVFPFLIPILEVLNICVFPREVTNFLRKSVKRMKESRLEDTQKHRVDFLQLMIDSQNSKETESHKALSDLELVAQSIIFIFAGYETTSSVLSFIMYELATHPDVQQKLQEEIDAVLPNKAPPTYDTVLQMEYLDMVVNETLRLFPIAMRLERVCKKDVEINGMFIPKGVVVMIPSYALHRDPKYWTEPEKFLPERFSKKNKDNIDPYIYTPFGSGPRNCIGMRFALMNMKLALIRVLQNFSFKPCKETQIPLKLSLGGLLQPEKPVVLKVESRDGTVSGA

[28] = Microsomal stability in pooled human liver microsomes; type: in vitro ADME; conditions: 1 μM, 0.2 mg/mL pooled HLM, presence and absence of NADPH, up to 50 min
[29] = tested on: CYP3A4; conditions: patients at steady state; cited from earlier work
[30] = tested on: OH-vemurafenib formation in pooled HLM; assay: Inhibition of OH-vemurafenib formation in pooled HLM by CYP inhibitors; type: in vitro ADME, human; conditions: pooled HLM 0.2 mg/mL, 60 μM vemurafenib, 10 min; 1 μM ketoconazole, 2 μM sulfaphenazole
[31] = tested on: SLCO1B1; conditions: cited from earlier work
[32] = huPXR/huCAR/huCYP3A4/3A7 mice treated with RIF
[33] = MBP vemurafenib 100 mg/kg b.i.d. four days

T1 sequence (P11712 whole entry): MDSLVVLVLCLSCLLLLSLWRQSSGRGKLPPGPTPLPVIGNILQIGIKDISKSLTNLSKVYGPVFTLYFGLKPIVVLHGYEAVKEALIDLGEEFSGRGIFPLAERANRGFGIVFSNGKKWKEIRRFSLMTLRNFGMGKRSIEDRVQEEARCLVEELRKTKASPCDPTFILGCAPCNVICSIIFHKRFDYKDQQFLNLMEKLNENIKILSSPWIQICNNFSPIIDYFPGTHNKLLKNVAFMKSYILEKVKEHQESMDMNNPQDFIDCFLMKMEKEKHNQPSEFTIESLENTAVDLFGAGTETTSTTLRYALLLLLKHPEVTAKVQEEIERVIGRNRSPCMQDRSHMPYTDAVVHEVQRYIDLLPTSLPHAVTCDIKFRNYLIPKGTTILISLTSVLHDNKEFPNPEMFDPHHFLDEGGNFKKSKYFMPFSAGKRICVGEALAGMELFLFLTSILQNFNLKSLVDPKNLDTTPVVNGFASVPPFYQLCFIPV

## CO[C@H]1/C=C/O[C@@]2(C)Oc3c(C)c(O)c4c(O)c(c(/C=N/N5CCN(C)CC5)c(O)c4c3C2=O)NC(=O)/C(C)=C\C=C\[C@H](C)[C@H](O)[C@@H](C)[C@@H](O)[C@@H](C)[C@H](OC(C)=O)[C@@H]1C [rifampicin]
[1]; [32]
  Increase in mRNA for Abcb1a in the small intestine: 4.7 fold
[2]; [32]
  Change in mRNA for Abcb1b in the small intestine: no change
[3]
  Change in mRNA for Abcg2 in the small intestine: no change

## CCCS(=O)(=O)Nc1ccc(F)c(C(=O)c2c[nH]c3ncc(-c4ccc(Cl)cc4)cc23)c1F [vemurafenib, Vemurafenib]
[1]; [33]
  Change in small intestinal Abcb1a mRNA expression: no change
[4]
  Km at 0.15 h: 20.4 ± 1.7 µM
[5]
  Objective tumour response: 48%
[6]
  EC50: 8.13 µM
[6]; DPX2 cells, 48 hours, fold change vs vehicle control
  EMAX of PXR activation: 8.54 fold
[7]
  Hepatic Cyp2b / Cyp2b10 protein (Western blot): weak induction
[8]
  ABCB1 interaction: both an ABCB1 substrate and inhibitor
[9]
  AUC: 1140 ± 242 µM·h
  Cmax: 122 ± 19.7 µM
[2]; [33]
  Change in small intestinal Abcb1b mRNA expression: no change
[10]
  Cmax: 86 ± 32 µM
[11]
  Generation of OH-vemurafenib by recombinant CYP: formed
[12]
  AUC0-24 necessary to effect regression of COLO205 xenografts: 300 µM·h
[13]
  Increase in AUC0-last of the CYP2D6 probe dextromethorphan: 47%
[14]
  Aqueous solubility: 0.01 to 10 µg/mL
[15]
  Hepatic Cyp1a protein (Western blot): moderate induction
[16]; huPXR/huCAR/huCYP3A4/3A7 mice
  Hepatic CYP3A4 protein (Western blot): weak induction
[17]
  Change in small intestinal CYP3A4 mRNA expression: no change
[18]; HLM vs MLM
  Vmax for HLM relative to MLM: approximately 10 fold
[18]; HLM, Hill equation fit
  S50 of OH-vemurafenib formation: 23.2 ± 0.8 µM
  Vmax of OH-vemurafenib formation: 4879 ± 108 peak area/min/mg
[19]
  Toxicity to DPX2 cells: highly toxic
[20]
  IC50: 14.9 µM
[21]; 0 – 48 hr period
  Recovered radioactivity in the parental form: ≥ 94%
[21]; 48 – 96 hr period
  Recovered radioactivity in the parental form: 55.5 ± 20.1%
[21]
  Time for 95% of the radioactive dose to be recovered: 18 days
  Total dose recovered within the first 96 hours: 68.5%
[21]; over 18 days
  Radioactive dose recovered in faeces: 94%
  Radioactive dose recovered in urine: 1%
[22]
  Increase in AUC0-last of the CYP1A2 probe caffeine: 160%
[23]; vemurafenib 50 mg/kg oral after PCN for three days
  Decrease in Cmax and AUCall and increase in CL in huCYP3A4/3A7 PCN group relative to Cyp3aKO/Cyp3a13+/+ PCN group: not statistically significant
[24]
  S50 of OH-vemurafenib formation: 23.8 ± 4.9 µM
  Vmax of OH-vemurafenib formation: 467 ± 54 peak area/min/mg
[25]
  AUC: 75 ± 33 µg·h/mL
[26]; male, huPXR/huCAR/huCYP3A4/3A7, mouse, whole blood, po, 50 mg/kg, RIF alone, Figure 5A
  AUC: 90 ± 13 µg·h/mL
[26]; male, huPXR/huCAR/huCYP3A4/3A7, mouse, whole blood, po, 50 mg/kg, huPXR/huCAR/huCYP3A4/3A7 mice, RIF pre-treatment, Figure 3A
  AUC: 121 ± 18 µg·h/mL
[26]; male, huPXR/huCAR/huCYP3A4/3A7, mouse, whole blood, po, 50 mg/kg, huPXR/huCAR/huCYP3A4/3A7 mice, vehicle pre-treatment, Figure 3A
  AUC: 432 ± 169 µg·h/mL
[26]; male, huPXR/huCAR/huCYP3A4/3A7, mouse, whole blood, po, 50 mg/kg, vehicle (CO) alone, Figure 5A
  AUC: 391 ± 112 µg·h/mL
[26]; male, huPXR/huCAR/huCYP3A4/3A7, mouse, whole blood, po, 50 mg/kg, vehicle (CO) then elacridar, Figure 5A
  AUC: 684 ± 85 µg·h/mL
[26]; male, huPXR/huCAR/huCYP3A4/3A7, mouse, whole blood, po, 50 mg/kg, Cmax of vemurafenib, vehicle (CO) then elacridar, Figure 5A
  Cmax: 37800 ± 3500 ng/mL
[27]; 60 μM compound, 400 pmol/mL enzyme, 15 min
  Generation of OH-vemurafenib by recombinant CYP: formed
[27]; S50 CYP3A4 vs CYP2C9
  Affinity for vemurafenib, CYP3A4 relative to CYP2C9: 2 fold
[28]
  Metabolic stability: highly stable
[29]
  Decrease in AUC0-last of the CYP3A4-specific probe midazolam: 39%

## CCC1(c2ccccc2)C(=O)NC(=O)NC1=O [PB, Phenobarbital]
[7]
  Hepatic Cyp2b / Cyp2b10 protein (Western blot): induction
[16]; mouse, in vivo
  Hepatic CYP3A4 protein (Western blot): weakly inducing
[26]; PB 80 mg/kg i.p. for three days, huPXR/huCAR/huCYP3A4/3A7 mice
  Effect of PB pre-treatment on vemurafenib kinetic parameters: no effect

## CC(=O)N1CCN(c2ccc(OCC3COC(Cn4ccnc4)(c4ccc(Cl)cc4Cl)O3)cc2)CC1 (stereo not drawn) [ketoconazole]
[30]
  Inhibition of OH-vemurafenib formation: significantly inhibited

## monohydroxy-vemurafenib [OH-vemurafenib]
[21]; 48 – 96 hr samples
  OH-vemurafenib as share of the total dose: 3.4%
  OH-vemurafenib share of recovered radioactivity: 13.7%

## CC(=O)[C@H]1[C@H](C#N)C[C@H]2[C@@H]3CC=C4C[C@@H](O)CC[C@]4(C)[C@H]3CC[C@@]21C [PCN, 5-pregnenolone-3β-ol-20-one-16α-carbonitrile]
[16]; huCYP3A4/3A7 mice, PCN three days
  Hepatic CYP3A4 protein (Western blot): effectively induced
[23]; PCN 10 mg/kg i.p. three days, Cyp3a null and huCYP3A4/3A7 animals
  Effect of PCN pre-treatment on vemurafenib clearance: enhanced clearance equally well

## COc1cc2c(cc1OC)CN(CCc1ccc(NC(=O)c3cccc4c(=O)c5cccc(OC)c5[nH]c34)cc1)CC2 [elacridar, Elacridar hydrochloride]
[31]
  Inhibition of SLCO1B1: known to inhibit

## Nc1ccc(S(=O)(=O)Nc2ccnn2-c2ccccc2)cc1 [sulfaphenazole]
[30]
  Inhibition of OH-vemurafenib formation: partial decrease; also recorded: small but statistically significant decrease
